Data: patent US11697648B2, “Fused pyrimidine pyridinone compounds as JAK inhibitors” (THERAVANCE BIOPHARMA R&D IP, LLC, priority 2019, dated 2023)

Experiments:
Caco-2 cell monolayers = experiment: Caco-2 permeation assay; format: in vitro ADME; conditions: 5 μM, A-B direction, with Verapamil (25 μM)
In short: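 Passive A-to-B permeability with P-gp inhibited by verapamil (25 μM); compound at 5 μM, n=2. Both compartments sampled at t0 and t120 and quantified by LC-MS/MS, giving apparent permeability in cm/sec from flux, area and concentration.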

JAK2 = JAK2 (Homo sapiens (Human), UniProt O60674); experiment: Biochemical JAK2 kinase assay (LanthaScreen)
In short: (§1)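 GST-JAK + GFP-STAT1 peptide, HEPES pH 7.5/MgCl2/EGTA/Brij-35 buffer; cpd preincubation 1 h RT; ATP start, 1 h RT; stop with 10 mM EDTA + 2 nM Tb-anti-pSTAT1; TR-FRET 520/495. 4-parameter IC50 → pKi (Cheng-Prusoff).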

JAK1 = JAK1 (Homo sapiens (Human), UniProt P23458); experiment: Biochemical JAK1 kinase assay (LanthaScreen)
In short: as §1

[1] = tested on: IL-2 stimulated STAT5 phosphorylation in Tall-1 human T cell line (JAK3); experiment: Cellular JAK3 potency assay: inhibition of IL-2 stimulated pSTAT5 in Tall-1 T cells; format: cell-based; conditions: IL-2 stimulated pSTAT5, Tall-1 T cells
In short: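 AlphaLISA SureFire Ultra measures STAT5 Tyr694/699 phosphorylation in lysed Tall-1 human T cells. Cells were exposed to compound for 1 h at 37 °C before a 30 min IL-2 challenge (300 ng/ml final). Values are pIC50 means with standard deviation from signal-versus-concentration curves.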

Tyk2 = Tyk2 (Homo sapiens (Human), UniProt P29597); experiment: Biochemical Tyk2 kinase assay (LanthaScreen)
In short: as §1

JAK3 = JAK3 (Homo sapiens (Human), UniProt P52333); experiment: Biochemical JAK3 kinase assay (LanthaScreen); conditions: for JAK3 (pKi)-JAK1 (pKi): selectivity JAK3 over JAK1, difference of pKi
In short: as §1

Chain of JAK1 (P23458 whole entry): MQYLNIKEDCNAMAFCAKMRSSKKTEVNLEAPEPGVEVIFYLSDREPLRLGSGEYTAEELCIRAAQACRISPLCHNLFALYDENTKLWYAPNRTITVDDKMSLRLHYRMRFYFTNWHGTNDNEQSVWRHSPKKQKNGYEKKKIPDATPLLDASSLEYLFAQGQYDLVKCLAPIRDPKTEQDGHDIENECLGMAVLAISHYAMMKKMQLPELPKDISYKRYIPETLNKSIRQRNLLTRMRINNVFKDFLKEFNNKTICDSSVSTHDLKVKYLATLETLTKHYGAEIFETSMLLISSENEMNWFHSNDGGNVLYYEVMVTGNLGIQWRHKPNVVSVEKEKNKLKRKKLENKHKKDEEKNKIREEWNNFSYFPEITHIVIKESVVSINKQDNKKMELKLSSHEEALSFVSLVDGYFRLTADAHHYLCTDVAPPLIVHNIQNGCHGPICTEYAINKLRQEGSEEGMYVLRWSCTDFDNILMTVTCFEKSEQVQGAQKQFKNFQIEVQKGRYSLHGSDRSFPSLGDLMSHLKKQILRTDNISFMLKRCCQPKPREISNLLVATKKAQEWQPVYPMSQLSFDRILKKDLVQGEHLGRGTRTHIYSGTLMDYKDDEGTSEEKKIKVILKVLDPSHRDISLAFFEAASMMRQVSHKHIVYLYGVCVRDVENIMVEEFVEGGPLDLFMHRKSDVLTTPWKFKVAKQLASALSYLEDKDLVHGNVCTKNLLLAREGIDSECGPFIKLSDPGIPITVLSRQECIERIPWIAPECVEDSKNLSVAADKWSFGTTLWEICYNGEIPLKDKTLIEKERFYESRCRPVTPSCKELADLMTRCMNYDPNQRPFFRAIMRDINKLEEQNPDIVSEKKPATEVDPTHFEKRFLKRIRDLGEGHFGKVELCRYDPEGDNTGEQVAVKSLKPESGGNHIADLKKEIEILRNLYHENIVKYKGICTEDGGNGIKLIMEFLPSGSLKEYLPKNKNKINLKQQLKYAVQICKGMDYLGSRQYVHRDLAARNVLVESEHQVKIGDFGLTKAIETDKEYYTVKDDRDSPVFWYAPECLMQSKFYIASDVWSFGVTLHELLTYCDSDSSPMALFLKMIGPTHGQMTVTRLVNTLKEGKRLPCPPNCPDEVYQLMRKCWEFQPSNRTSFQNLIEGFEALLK
Chain of JAK3 (P52333 whole entry): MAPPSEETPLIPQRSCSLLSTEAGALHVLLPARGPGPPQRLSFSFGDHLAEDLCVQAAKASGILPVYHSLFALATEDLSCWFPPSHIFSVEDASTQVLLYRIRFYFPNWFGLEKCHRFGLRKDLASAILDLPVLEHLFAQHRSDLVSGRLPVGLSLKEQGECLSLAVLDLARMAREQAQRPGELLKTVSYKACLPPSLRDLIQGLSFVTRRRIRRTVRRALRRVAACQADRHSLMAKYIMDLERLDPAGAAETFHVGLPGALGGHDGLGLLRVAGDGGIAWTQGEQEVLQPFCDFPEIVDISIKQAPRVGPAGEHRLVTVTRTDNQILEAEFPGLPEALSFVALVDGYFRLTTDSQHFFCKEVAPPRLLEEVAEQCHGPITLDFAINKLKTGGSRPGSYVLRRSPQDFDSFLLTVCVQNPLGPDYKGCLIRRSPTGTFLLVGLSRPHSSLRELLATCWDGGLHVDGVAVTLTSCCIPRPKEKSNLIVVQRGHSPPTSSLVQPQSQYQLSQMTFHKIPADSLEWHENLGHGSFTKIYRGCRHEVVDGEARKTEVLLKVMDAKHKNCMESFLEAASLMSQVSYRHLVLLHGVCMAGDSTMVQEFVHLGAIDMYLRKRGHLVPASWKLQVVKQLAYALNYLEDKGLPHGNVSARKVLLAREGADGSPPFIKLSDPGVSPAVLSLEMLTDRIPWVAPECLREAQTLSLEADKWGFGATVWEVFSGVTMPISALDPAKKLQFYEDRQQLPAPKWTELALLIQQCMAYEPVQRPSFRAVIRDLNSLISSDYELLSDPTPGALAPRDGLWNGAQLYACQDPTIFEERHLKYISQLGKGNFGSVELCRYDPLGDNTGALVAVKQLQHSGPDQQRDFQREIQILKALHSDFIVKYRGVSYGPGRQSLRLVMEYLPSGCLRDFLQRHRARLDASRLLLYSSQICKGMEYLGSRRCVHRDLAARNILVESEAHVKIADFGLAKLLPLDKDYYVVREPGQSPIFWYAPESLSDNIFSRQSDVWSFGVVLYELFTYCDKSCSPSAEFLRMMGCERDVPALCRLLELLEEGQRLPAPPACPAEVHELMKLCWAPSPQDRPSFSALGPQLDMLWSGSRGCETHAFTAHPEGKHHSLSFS
Chain of Tyk2 (P29597 whole entry): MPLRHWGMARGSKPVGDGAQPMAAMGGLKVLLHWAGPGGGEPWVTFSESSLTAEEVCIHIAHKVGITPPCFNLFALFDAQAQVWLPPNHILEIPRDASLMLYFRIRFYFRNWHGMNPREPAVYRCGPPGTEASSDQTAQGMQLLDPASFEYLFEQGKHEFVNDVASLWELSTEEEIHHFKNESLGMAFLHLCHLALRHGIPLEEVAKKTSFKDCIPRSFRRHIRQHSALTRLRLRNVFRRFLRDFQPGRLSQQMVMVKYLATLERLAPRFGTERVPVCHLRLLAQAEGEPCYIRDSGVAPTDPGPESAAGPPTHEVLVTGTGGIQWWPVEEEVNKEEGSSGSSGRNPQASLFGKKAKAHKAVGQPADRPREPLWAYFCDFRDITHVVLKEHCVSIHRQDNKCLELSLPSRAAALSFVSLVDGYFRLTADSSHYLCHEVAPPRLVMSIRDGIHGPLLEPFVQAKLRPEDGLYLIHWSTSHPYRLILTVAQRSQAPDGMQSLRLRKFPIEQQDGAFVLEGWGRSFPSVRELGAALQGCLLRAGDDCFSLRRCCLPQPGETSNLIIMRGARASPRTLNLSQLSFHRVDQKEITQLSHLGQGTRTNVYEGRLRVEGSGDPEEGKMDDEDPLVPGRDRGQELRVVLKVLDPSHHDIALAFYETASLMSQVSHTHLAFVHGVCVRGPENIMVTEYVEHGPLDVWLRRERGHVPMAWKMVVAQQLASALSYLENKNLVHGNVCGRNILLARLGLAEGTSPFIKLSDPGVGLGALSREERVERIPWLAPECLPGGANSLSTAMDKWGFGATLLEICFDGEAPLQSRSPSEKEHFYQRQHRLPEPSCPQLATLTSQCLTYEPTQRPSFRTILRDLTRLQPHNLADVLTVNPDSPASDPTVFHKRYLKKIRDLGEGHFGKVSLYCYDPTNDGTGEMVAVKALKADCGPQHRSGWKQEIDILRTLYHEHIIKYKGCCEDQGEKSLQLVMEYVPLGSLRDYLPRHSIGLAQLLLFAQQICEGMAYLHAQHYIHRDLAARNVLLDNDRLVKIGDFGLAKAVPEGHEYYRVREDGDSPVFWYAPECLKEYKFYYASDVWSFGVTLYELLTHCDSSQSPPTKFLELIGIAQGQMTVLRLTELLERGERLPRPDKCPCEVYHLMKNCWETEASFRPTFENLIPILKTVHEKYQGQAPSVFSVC
Chain of JAK2 (O60674 whole entry): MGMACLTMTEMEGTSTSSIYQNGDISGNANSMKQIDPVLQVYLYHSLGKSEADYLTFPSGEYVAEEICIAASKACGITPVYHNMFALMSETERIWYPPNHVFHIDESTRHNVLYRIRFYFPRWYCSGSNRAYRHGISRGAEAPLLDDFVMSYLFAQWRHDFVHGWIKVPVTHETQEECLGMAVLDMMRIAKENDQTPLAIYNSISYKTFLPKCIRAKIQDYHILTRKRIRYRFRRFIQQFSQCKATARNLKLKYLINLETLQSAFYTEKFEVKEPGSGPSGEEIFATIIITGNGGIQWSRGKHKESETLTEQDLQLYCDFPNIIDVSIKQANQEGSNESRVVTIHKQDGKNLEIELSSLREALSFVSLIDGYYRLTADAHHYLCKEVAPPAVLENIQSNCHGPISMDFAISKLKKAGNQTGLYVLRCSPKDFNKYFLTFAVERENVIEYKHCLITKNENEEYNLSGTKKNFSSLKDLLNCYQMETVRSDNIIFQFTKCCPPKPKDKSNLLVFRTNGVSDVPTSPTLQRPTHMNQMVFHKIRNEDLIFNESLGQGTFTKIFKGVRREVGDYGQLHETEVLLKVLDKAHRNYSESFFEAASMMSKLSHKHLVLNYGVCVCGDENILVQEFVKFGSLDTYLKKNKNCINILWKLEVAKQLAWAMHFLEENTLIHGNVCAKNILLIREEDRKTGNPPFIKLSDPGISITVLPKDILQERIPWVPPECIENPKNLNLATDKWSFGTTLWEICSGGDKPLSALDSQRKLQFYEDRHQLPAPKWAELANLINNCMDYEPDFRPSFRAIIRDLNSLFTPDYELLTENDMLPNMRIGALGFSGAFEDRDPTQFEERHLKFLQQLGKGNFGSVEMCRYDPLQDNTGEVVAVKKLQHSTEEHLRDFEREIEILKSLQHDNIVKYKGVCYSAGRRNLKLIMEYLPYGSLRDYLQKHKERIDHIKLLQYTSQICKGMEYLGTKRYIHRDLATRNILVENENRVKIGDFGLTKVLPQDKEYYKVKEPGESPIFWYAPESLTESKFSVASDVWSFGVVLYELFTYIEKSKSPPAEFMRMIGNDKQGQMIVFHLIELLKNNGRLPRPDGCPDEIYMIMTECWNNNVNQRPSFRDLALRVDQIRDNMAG

Row | Compound | Caco Kp (Caco-2 cell monolayers) | JAK 2 (pKi) (JAK2) | JAK 1 (pKi) (JAK1) | Tall-1 (pIC50) [1] | Tyk 2 (pKi) (Tyk2) | JAK 3 (pKi) (JAK3) | JAK3 (pKi)-JAK1 (pKi) (JAK3)
1 | C=CC(=O)N1CC(CCn2c(=O)ccc3cnc(Nc4cccc(N5CCN(C(=O)N(C)C)CC5)c4)nc32)C1 [Example 124] | B (B represents a value between 5×10^−6 and 10×10^−6 cm/sec) | E (E represents a pKi value of 7 or below (Ki of 100 nM or above)) | E (E represents a pKi value of 7 or below (Ki of 100 nM or above)) | B (B represents a pC50 value between 6.7 (included) and 7.5 (IC50 between 200 nM and 32 nM)) | E (E represents a pKi value of 7 or below (Ki of 100 nM or above)) | A (A represents a pKi value≥10 (Ki≤0.1 nM)) | A (A represents a value of 3 or above)
2 | C=CC(=O)N1CC(CCn2c(=O)ccc3cnc(Nc4ccc(N5CCC(F)(F)CC5)cc4)nc32)C1 [Example 157] | C (C represents a value between 10×10^−6 and 30×10^−6 cm/sec) | E (E represents a pKi value of 7 or below (Ki of 100 nM or above)) | E (E represents a pKi value of 7 or below (Ki of 100 nM or above)) | B (B represents a pC50 value between 6.7 (included) and 7.5 (IC50 between 200 nM and 32 nM)) | E (E represents a pKi value of 7 or below (Ki of 100 nM or above)) | A (A represents a pKi value≥10 (Ki≤0.1 nM)) | A (A represents a value of 3 or above)
3 | C=CC(=O)N1CC(CCn2c(=O)ccc3cnc(Nc4ccc(N5CCN(C(=O)OC)CC5)cc4)nc32)C1 [Example 71] | B (B represents a value between 5×10^−6 and 10×10^−6 cm/sec) | E (E represents a pKi value of 7 or below (Ki of 100 nM or above)) | E (E represents a pKi value of 7 or below (Ki of 100 nM or above)) | B (B represents a pC50 value between 6.7 (included) and 7.5 (IC50 between 200 nM and 32 nM)) | E (E represents a pKi value of 7 or below (Ki of 100 nM or above)) | B (B represents pKi value between 9 and 10 (Ki between 1 nM and 0.1 nM)) | A (A represents a value of 3 or above)
4 | C=CC(=O)N1CCN(CCn2c(=O)ccc3cnc(Nc4ccc(N5CCN(S(=O)(=O)CCOC)CC5)cc4)nc32)[C@@H](C)C1 [Example 170] | B (B represents a value between 5×10^−6 and 10×10^−6 cm/sec) | E (E represents a pKi value of 7 or below (Ki of 100 nM or above)) | E (E represents a pKi value of 7 or below (Ki of 100 nM or above)) | A (A represents a pIC50 value≥7.5 (IC50≤32 nM)) | E (E represents a pKi value of 7 or below (Ki of 100 nM or above)) | A (A represents a pKi value≥10 (Ki≤0.1 nM)) | A (A represents a value of 3 or above)
5 | C=CC(=O)N1CCN(CCn2c(=O)ccc3cnc(Nc4cnn(C)c4)nc32)[C@@H](C)C1 [Example 30] | A (A represents a value below 5×10^−6 cm/sec) | E (E represents a pKi value of 7 or below (Ki of 100 nM or above)) | E (E represents a pKi value of 7 or below (Ki of 100 nM or above)) | B (B represents a pC50 value between 6.7 (included) and 7.5 (IC50 between 200 nM and 32 nM)) | E (E represents a pKi value of 7 or below (Ki of 100 nM or above)) | A (A represents a pKi value≥10 (Ki≤0.1 nM)) | A (A represents a value of 3 or above)
6 | C=CC(=O)N1CCN(CCn2c(=O)ccc3cnc(Nc4cnn(C)c4)nc32)CC12CC2 [Example 32] | B (B represents a value between 5×10^−6 and 10×10^−6 cm/sec) | E (E represents a pKi value of 7 or below (Ki of 100 nM or above)) | E (E represents a pKi value of 7 or below (Ki of 100 nM or above)) | B (B represents a pC50 value between 6.7 (included) and 7.5 (IC50 between 200 nM and 32 nM)) | E (E represents a pKi value of 7 or below (Ki of 100 nM or above)) | B (B represents pKi value between 9 and 10 (Ki between 1 nM and 0.1 nM)) | A (A represents a value of 3 or above)
7 | C=CC(=O)N1CC(CCn2c(=O)ccc3cnc(Nc4ccc(N5C[C@@H](C)N(C(C)=O)[C@@H](C)C5)cc4)nc32)C1 [Example 178] | C (C represents a value between 10×10^−6 and 30×10^−6 cm/sec) | E (E represents a pKi value of 7 or below (Ki of 100 nM or above)) | E (E represents a pKi value of 7 or below (Ki of 100 nM or above)) | B (B represents a pC50 value between 6.7 (included) and 7.5 (IC50 between 200 nM and 32 nM)) | E (E represents a pKi value of 7 or below (Ki of 100 nM or above)) | A (A represents a pKi value≥10 (Ki≤0.1 nM)) | A (A represents a value of 3 or above)
8 | C=CC(=O)N1CCN(CCn2c(=O)ccc3cnc(Nc4ccc(N5CCN(C(C)C)CC5)cc4)nc32)CC1 [Example 205] | B (B represents a value between 5×10^−6 and 10×10^−6 cm/sec) | E (E represents a pKi value of 7 or below (Ki of 100 nM or above)) | E (E represents a pKi value of 7 or below (Ki of 100 nM or above)) | A (A represents a pIC50 value≥7.5 (IC50≤32 nM)) | E (E represents a pKi value of 7 or below (Ki of 100 nM or above)) | B (B represents pKi value between 9 and 10 (Ki between 1 nM and 0.1 nM)) | A (A represents a value of 3 or above)
9 | C=CC(=O)N1CC(CCn2c(=O)ccc3cnc(Nc4ccc(N5CCN(C(=O)CCS(C)(=O)=O)CC5)cc4)nc32)C1 [Example 140] | A (A represents a value below 5×10^−6 cm/sec) | E (E represents a pKi value of 7 or below (Ki of 100 nM or above)) | E (E represents a pKi value of 7 or below (Ki of 100 nM or above)) | C (C represents a pIC50 value between 6 and 6.7 (IC50 between 1 μM and 200 nM)) | E (E represents a pKi value of 7 or below (Ki of 100 nM or above)) | A (A represents a pKi value≥10 (Ki≤0.1 nM)) | A (A represents a value of 3 or above)
10 | C=CC(=O)N1CC(CCn2c(=O)ccc3cnc(Nc4ccc(N5CCN(C(=O)OC(C)C)CC5)cc4)nc32)C1 [Example 100] | A (A represents a value below 5×10^−6 cm/sec) | E (E represents a pKi value of 7 or below (Ki of 100 nM or above)) | E (E represents a pKi value of 7 or below (Ki of 100 nM or above)) | A (A represents a pIC50 value≥7.5 (IC50≤32 nM)) | E (E represents a pKi value of 7 or below (Ki of 100 nM or above)) | A (A represents a pKi value≥10 (Ki≤0.1 nM)) | A (A represents a value of 3 or above)
11 | C=CC(=O)N1CCN(CCn2c(=O)ccc3cnc(Nc4ccc(N5CCN(C(=O)CSC)CC5)cc4)nc32)[C@@H](CC)C1 [Example 188] | C (C represents a value between 10×10^−6 and 30×10^−6 cm/sec) | E (E represents a pKi value of 7 or below (Ki of 100 nM or above)) | E (E represents a pKi value of 7 or below (Ki of 100 nM or above)) | B (B represents a pC50 value between 6.7 (included) and 7.5 (IC50 between 200 nM and 32 nM)) | E (E represents a pKi value of 7 or below (Ki of 100 nM or above)) | B (B represents pKi value between 9 and 10 (Ki between 1 nM and 0.1 nM)) | A (A represents a value of 3 or above)
12 | C=CC(=O)N1CC(CCn2c(=O)ccc3cnc(Nc4ccc(N5CCN(C(=O)OCCOC)CC5)cc4)nc32)C1 [Example 99] | A (A represents a value below 5×10^−6 cm/sec) | E (E represents a pKi value of 7 or below (Ki of 100 nM or above)) | E (E represents a pKi value of 7 or below (Ki of 100 nM or above)) | B (B represents a pC50 value between 6.7 (included) and 7.5 (IC50 between 200 nM and 32 nM)) | E (E represents a pKi value of 7 or below (Ki of 100 nM or above)) | A (A represents a pKi value≥10 (Ki≤0.1 nM)) | A (A represents a value of 3 or above)
13 | C=CC(=O)N1CC(CCn2c(=O)ccc3cnc(Nc4cccc(N5CCN(C(C)=O)CC5)c4)nc32)C1 [Example 78] | A (A represents a value below 5×10^−6 cm/sec) | E (E represents a pKi value of 7 or below (Ki of 100 nM or above)) | E (E represents a pKi value of 7 or below (Ki of 100 nM or above)) | B (B represents a pC50 value between 6.7 (included) and 7.5 (IC50 between 200 nM and 32 nM)) | E (E represents a pKi value of 7 or below (Ki of 100 nM or above)) | B (B represents pKi value between 9 and 10 (Ki between 1 nM and 0.1 nM)) | A (A represents a value of 3 or above)
